Reference: patent US8222404B2, “[1,2,4]Thiadiazin-3-yl acetic acid compound and methods of making the acetic acid compound” (Anadys Pharmaceuticals, Inc., priority 2008, dated 2012)

Tested on: HCV Huh-luc/neo-ET replicon cells
Test: Luciferase-Based HCV Replicon Assay (EC50 (1b))
Format: cell-based
Conditions: Hepatitis C virus, 72 hours exposure, luciferase activity
In short: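 Replicon cells seeded, then exposed 24 h later to a compound concentration series in triplicate for 72 h. Luciferase luminescence read; % inhibition vs no-compound control, with 100 nM BILN-2061 as background, used to derive EC50 (1b).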

SMILES | EC50 [nM]
CS(=O)(=O)NCc1csc2c1S(=O)(=O)N=C(C1=C(O)C3CCCCCC3N(Cc3ccc(F)c(Cl)c3)C1=O)N2 (racemic) [Example 123, (rac-cis)-N-{3-[1-(3-Chloro-4-fluoro-benzyl)-4-hydroxy-2-oxo-2,4a,5,6,7,8,9,9a-octahydro-1H-cyclohepta[b]pyridin-3-yl]-1,1-dioxo-1,4-dihydro-1λ^6-thieno[2,3-e][1,2,4]thiadiazin-7-ylmethyl}-methanesulfonamide] | 100 to 1000
CS(=O)(=O)NCc1csc2c1S(=O)(=O)N=C(C1=C(O)C3CCCCC3N(Cc3ccccc3)C1=O)N2 (racemic) [Example 130, (rac-cis)-N-[3-(1-Benzyl-4-hydroxy-2-oxo-1,2,4a,5,6,7,8,8a-octahydro-quinolin-3-yl)-1,1-dioxo-1,4-dihydro-1λ^6-thieno[2,3-e][1,2,4]thiadiazin-7-ylmethyl]-methanesulfonamide] | 100 to 1000
Cc1cc(CN2C(=O)C(C3=NS(=O)(=O)c4c(CNS(C)(=O)=O)csc4N3)=C(O)C3CCCCC32)ccc1F (racemic) [Example 131, (rac-cis)-N-{3-[1-(4-Fluoro-3-methyl-benzyl)-4-hydroxy-2-oxo-1,2,4a,5,6,7,8,8a-octahydro-quinolin-3-yl]-1,1-dioxo-1,4-dihydro-1λ^6-thieno[2,3-e][1,2,4]thiadiazin-7-ylmethyl}-methanesulfonamide] | 100 to 1000
CC(C)CCN1C(=O)C(C2=NS(=O)(=O)c3c(CNS(C)(=O)=O)csc3N2)=C(O)C2CCCCC21 (racemic) [Example 132, (rac-cis)-N-{3-[4-Hydroxy-1-(3-methyl-butyl)-2-oxo-1,2,4a,5,6,7,8,8a-octahydro-quinolin-3-yl]-1,1-dioxo-1,4-dihydro-1λ^6-thieno[2,3-e][1,2,4]thiadiazin-7-ylmethyl}-methanesulfonamide] | 20 to 100
CC(C)(C)CCN1C(=O)C(C2=NS(=O)(=O)c3c(CNS(C)(=O)=O)csc3N2)=C(O)C2CCCCC21 (racemic) [Example 133, (rac-cis)-N-{3-[1-(3,3-Dimethyl-butyl)-4-hydroxy-2-oxo-1,2,4a,5,6,7,8,8a-octahydro-quinolin-3-yl]-1,1-dioxo-1,4-dihydro-1λ^6-thieno[2,3-e][1,2,4]thiadiazin-7-ylmethyl}-methanesulfonamide] | 20 to 100
CS(=O)(=O)NCc1csc2c1S(=O)(=O)N=C(C1=C(O)C3CCCCC3N(Cc3ccc(F)c(F)c3)C1=O)N2 (racemic) [Example 134, (rac-cis)-N-{3-[1-(3,4-Difluoro-benzyl)-4-hydroxy-2-oxo-1,2,4a,5,6,7,8,8a-octahydro-quinolin-3-yl]-1,1-dioxo-1,4-dihydro-1λ^6-thieno[2,3-e][1,2,4]thiadiazin-7-ylmethyl}-methanesulfonamide] | > 1000
CS(=O)(=O)NCc1csc2c1S(=O)(=O)N=C(C1=C(O)C3CCCCC3N(Cc3ccsc3)C1=O)N2 (racemic) [Example 135, (rac-cis)-N-[3-(4-Hydroxy-2-oxo-1-thiophen-3-ylmethyl-1,2,4a,5,6,7,8,8a-octahydro-quinolin-3-yl)-1,1-dioxo-1,4-dihydro-1λ^6-thieno[2,3-e][1,2,4]thiadiazin-7-ylmethyl]-methanesulfonamide] | > 1000
CS(=O)(=O)NCc1csc2c1S(=O)(=O)N=C(C1=C(O)C3CCCCCC3N(Cc3ccccc3)C1=O)N2 (racemic) [Example 136, (rac-cis)-N-[3-(1-Benzyl-4-hydroxy-2-oxo-2,4a,5,6,7,8,9,9a-octahydro-1H-cyclohepta[b]pyridin-3-yl)-1,1-dioxo-1,4-dihydro-1λ^6-thieno[2,3-e][1,2,4]thiadiazin-7-ylmethyl]-methanesulfonamide] | 20 to 100
CS(=O)(=O)NCc1csc2c1S(=O)(=O)N=C(C1=C(O)C3CCCCCC3N(Cc3ccc(F)c(F)c3)C1=O)N2 (racemic) [Example 137, (rac-cis)-N-{3-[1-(3,4-Difluoro-benzyl)-4-hydroxy-2-oxo-2,4a,5,6,7,8,9,9a-octahydro-1H-cyclohepta[b]pyridin-3-yl]-1,1-dioxo-1,4-dihydro-1λ^6-thieno[2,3-e][1,2,4]thiadiazin-7-ylmethyl}-methanesulfonamide] | 100 to 1000
